The values that follow come from patent USRE37781E1, “Substituted cyclic carbonyls and derivatives thereof useful as retroviral protease inhibitors” (DuPont Pharmaceuticals Company, priority 1991, dated 2002).

For the experiment, the target named is single-chain tethered dimer of HIV protease (Human immunodeficiency virus 1, UniProt P04585). Description: biochemical. The arrangement: fused on or other part: A second copy of the same protease unit is joined to the first by a short peptide tether, giving one polypeptide. In kind it is biochemical. Here is the method: HIV Protease Inhibition Assay—HPLC Method
Active protease was prepared as described therein by extraction with 67% acetic acid, dilution 33-fold with water, dialysis against water and then against a “refolding buffer” consisting of 20 mM MES, 1 mM dithiothreitol and 10% glycerol. Protease was stored as a stock preparation at 10 uM in refolding buffer.
Substrate: Peptide of sequence: aminobenzoyl-Ala-Thr-His-Gln-Val-Tyr-Phe(NO2)-Val-Arg-Lys-Ala containing p-nitrophenylalanine, was prepared by solid phase synthesis as previously described Cheng et al., op.cit. Stock solutions of 2 mM substrate were prepared in DMSO.
Inhibitory compounds were dissolved in sufficient DMSO to make 3 mM stock solutions. All further dilutions were prepared in “assay buffer”: 1M NaCl, 50 mM MES, pH 5.5, 1 mM EDTA, 1 mM DTT, […] glycerol.
Enzyme reaction: In a 2 ml screw-cap centrifuge tube were added 50 ul protease (final concentration 0.25 nM) and 0.1 ml inhibitory compound (final concentration […]). After 15 min preincubation at room temperature, the reaction was started with the addition of 0.05 ml substrate (final concentration 5 uM). Incubation was carried out at 30 C. for 1 hr. The reaction was stopped with 1 ml 0.1M ammonium hydroxide.
HPLC measurement of product formation: The product (aminobenzoyl-Ala-Thr-His-Gln-Val-Tyr) was separated from substrate on a Pharmacia MonoQ anion exchange column. The injection volume was 0.2 ml. The mobile phases were: A (20 mM trisHCl, pH 9.0, 0.02% sodium Azide, 10% acetonitrile), B (20 mM tris HCl, pH 9.0, 0.02% sodium azide, 0.5M ammonium formate, 10% acetonitrile). The mobile phases were pumped at 1 ml/min, with a gradient from 0 to 30% B in 5 min, 100% B for 4 min to wash the column, and a re-equilibration for 4 min. The retention time of the product was 3.6 min. Detection with a Shimadzu model RF535 fluorescence monitor was at 330 nm (excitation) and 430 (emission).

[1] abbreviates: HIV protease inhibition, HPLC method, Table 2d, read-out: HPLC K1.
Setting [2] is: read-out: HPLC Ki, Table 1d, lower part.
Where [3] appears, read: Table 2d, HIV protease inhibition, HPLC method, read-out: HPLC K1.
The mark [4] stands for this setting: Table 2d, class symbols, read-out: HPLC K1.

Where two headings read alike, the source gives them in different places.

As to `O=C1N(Cc2coc(CO)c2)C(Cc2ccccc2)C(O)C(O)C(Cc2ccccc2)N1Cc1coc(CO)c1` (stereo not shown) [Example 15FP], the Ki under setting [1] was under 10 nM.
On to `C=CCOC1C(O)C(Cc2ccccc2)N(CC2CC2)C(=O)N(CC2CC2)C1Cc1ccccc1` (stereo not shown) [Example 7AJ], for which the Ki under setting [2] fell in the range of 10 to 1000 nM.
For `O=C1N(Cc2ccccc2)C(CCc2ccccc2)C(O)C(O)C(CCc2ccccc2)N1Cc1ccccc1` (stereo not shown) [Example 16A], the Ki (read-out: K4 HPLC, Table 2e) is 10 to 1000 nM.
For the compound `CSCCC1C(O)C(O)C(CCSC)N(Cc2ccccc2)C(=O)N1Cc1ccccc1` (stereo not shown) [Example 16AA], the Ki (Table 2e, read-out: K4 HPLC) was over 1000 nM.
Regarding `O=C(NCCN1CCOCC1)c1cccc(CN2C(Cc3ccccc3)C(O)C(O)C(Cc3ccccc3)N(Cc3cccc(C(=O)NCCN4CCOCC4)c3)S2(=O)=O)c1` (stereo not shown) [23Z], the Ki (Table 2m, read-out: HPLC Ki) was 10 to 1000 nM.
In the case of `CCCCC1C(O)C(O)C(CCCC)N(Cc2ccccc2)C(=O)N1Cc1ccccc1` (stereo not shown) [Example 16AG], the Ki (Table 2e, read-out: K4 HPLC) is over 1000 nM.
`C=CCCC1C(O)C(O)C(CCC=C)N(CC=C)C(=O)N1CC=C` (stereo not shown) [Example 16AS]: where the note is “Table 2e, read-out: K4 HPLC”, the Ki was over 1000 nM.
Still for that read-out and setting: to `C=CCN1C(=O)N(CC=C)C(CCCCCC)C(O)C(O)C1CCCCCC` (stereo not shown) [Example 16AQ] belongs over 1000 nM.
The same measure, in the same setting: the figure for `O=C1N(CC2CC2)C(Cc2ccc3ccccc3c2)C(O)C(O)C(Cc2ccc3ccccc3c2)N1CC1CC1` (stereo not shown) [16L] is under 10 nM; for `CC(C)CC1C(O)C(O)C(CC(C)C)N(CC2CC2)C(=O)N1CC1CC1` (stereo not shown) [Example 16J] it is under 10 nM.
For `CN(C)CCNC(=O)c1cccc(CN2C(=O)N(Cc3cccc(C(=O)NCCN(C)C)c3)C(Cc3ccccc3)C(O)C(O)C2Cc2ccccc2)c1` (stereo not shown) [15XV], under setting [3], the Ki was under 10 nM.
For the compound `COc1ccc(CC2C(O)C(O)C(Cc3ccc(OC)cc3)N(CC3CC3)C(=O)N2CC2CC2)cc1` (stereo not shown) [20AF], the Ki (Table 2i, read-out: HPLC Ki) is under 10 nM.
`O=C1NC(Cc2ccccc2)C(O)C(O)C(Cc2ccccc2)N1CC1CC1CCO` (stereo not shown) [Example 12Z]: under setting [4], the Ki lay in the range of 10 to 1000 nM.
Consider `O=C1NC(Cc2ccccc2)C(O)C(O)C(Cc2ccccc2)N1Cc1ccco1` (stereo not shown) [Example 15FV], for which the Ki under setting [1] was under 10 nM.
Take `NC(=NO)c1cccc(CN2C(=O)N(Cc3cccc(C(N)=NO)c3)C(Cc3cccs3)C(O)C(O)C2Cc2cccs2)c1` (stereo not shown) [16P]: the Ki (Table 2e, read-out: K4 HPLC) was under 10 nM.
In the case of `CC(CCCN1C(=O)N(CCCC(C)n2ccnc2)[C@H](Cc2ccccc2)[C@H](O)[C@@H](O)[C@H]1Cc1ccccc1)n1ccnc1` (stereo partly shown) [15FK], the Ki under setting [1] is over 1000 nM.
For `Nc1ncc(-c2cccc(CN3C(=O)N(Cc4cccc(-c5ccnc(N)n5)c4)C(Cc4ccccc4)C(O)C(O)C3Cc3ccccc3)c2)cn1` (stereo not shown) [15BB], the Ki under setting [3] is 10 to 1000 nM.
On to `CCCCC1C(O)C(O)C(CCCC)N(Cc2ccc(CO)cc2)C(=O)N1Cc1ccc(CO)cc1` (stereo not shown) [Example 16AT], for which the Ki (Table 2e, read-out: K4 HPLC) fell in the range of 10 to 1000 nM.
Regarding `CSCCC1C(O)C(O)C(CCSC)N(CC2CC2)C(=O)N1CC1CC1` (stereo not shown) [Example 16AB], under “Table 2e, read-out: K4 HPLC”, the Ki was over 1000 nM.
For the compound `O=C1NC(Cc2ccccc2)C(O)C(O)C(Cc2ccccc2)N1Cc1ccc2[nH]nnc2c1` (stereo not shown) [15DM], the Ki under setting [3] was under 10 nM.
Turning to `CC1C(O)C(O)C(C)N(Cc2ccccc2)C(=O)N1Cc1ccccc1` (stereo not shown) [Example 16G], the Ki (read-out: K4 HPLC, Table 2e) is over 1000 nM.
Regarding `O=C1N(Cc2ccccc2)C(Cc2c[nH]c3ccccc23)C(O)C(O)C(Cc2c[nH]c3ccccc23)N1Cc1ccccc1` (stereo not shown) [Example 16Y], the Ki (Table 2e, read-out: K4 HPLC) lay in the range of 10 to 1000 nM.
As for `COCCOCO[C@@H]1C(=O)[C@@H](Cc2ccccc2)N(CC2CC2)C(=O)N(CC2CC2)[C@@H]1Cc1ccccc1` [Example 7AA], the Ki under setting [2] was over 1000 nM.
Turning to `O=C1N(CC2CC2c2ccccc2)C(Cc2ccccc2)C(O)C(O)C(Cc2ccccc2)N1CC1CC1c1ccccc1` (stereo not shown) [Example 14H], the Ki under setting [4] lay in the range of 10 to 1000 nM.
With `CCCCCCN1C(=O)N(CCCCCC)C(C(C)C)C(O)C(O)C1C(C)C` (stereo not shown) [Example 16X], the Ki (Table 2e, read-out: K4 HPLC) was under 10 nM.
The same measure, in the same setting: to `CC(C)CC1C(O)C(O)C(CC(C)C)N(Cc2ccccc2)C(=O)N1Cc1ccccc1` (stereo not shown) [Example 16Z] belongs 10 to 1000 nM.
For `O=C1N(CC2CC2)C(Cc2ccc(F)cc2)C(O)C(O)C(Cc2ccc(F)cc2)N1CC1CC1` (stereo not shown) [20H], where the note is “read-out: HPLC Ki, Table 2i”, the Ki was under 10 nM.
Consider `C=CCCC1C(O)C(O)C(CCC=C)N(Cc2ccccc2)C(=O)N1Cc1ccccc1` (stereo not shown) [Example 16AK], for which the Ki (Table 2e, read-out: K4 HPLC) is over 1000 nM.
